Measurements reported in EP1246919B1, “PROGENITOR CELL PR[…] AND RELATED METHODS AND PRODUCTS” (ImClone Systems Incorporated, priority 1999, dated 2001).
One block for each compound: values may come before it.

What was measured:
[1] = biological target: T1, Dl-FRIL (Lablab purpureus, UniProt Q9ZTA9); conditions: Mo et al., Glycobiology 9:173-179, 1999; cited from earlier work
T1 sequence (Q9ZTA9 9-124 limits assumed): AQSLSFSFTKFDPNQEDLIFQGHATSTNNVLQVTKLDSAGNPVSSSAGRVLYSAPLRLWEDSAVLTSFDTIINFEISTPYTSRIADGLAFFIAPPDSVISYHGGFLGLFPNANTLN
T1 sequence (Q9ZTA9 125-272 limits assumed): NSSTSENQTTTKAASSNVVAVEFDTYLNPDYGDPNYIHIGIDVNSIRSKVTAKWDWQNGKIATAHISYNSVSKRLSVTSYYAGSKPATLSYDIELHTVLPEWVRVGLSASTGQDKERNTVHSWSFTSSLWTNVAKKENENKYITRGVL

[2] = test system: BALB/c mice; assay: Murine 5-FU chemoprotection model; assay type: in vivo; conditions: 5-FU 150 mg/kg intraperitoneally
Method: A dose regimen was established to determine whether FRIL protects mice from death resulting from hematopoietic toxicity of […]. […] This finding was consistent with the understanding that stem cells reside in the bone marrow in predominantly a quiescent state. Bone marrow cellularity in these mice was restored after 2 weeks by the recruitment of the dormant progenitors and responsive stem cells that escaped toxicity of 5-FU. Administration of a second dose of 5-FU (also at 150 mg/kg) 3-7 days after the initial dose killed those stem cells and progenitors recruited into S-phase in response to the first treatment of 5-FU (Lerner and Harrison, supra).
In this study described below, the pretreatment dose regimen for Dl-FRIL described above (5 mg/kg x 4 days) was selected based on the requirement of treating animals with cytokines for several days prior to starting chemotherapy and because Dl-FRIL-treated mice easily tolerated doses (5 mg/kg) that were 10- to 100-fold greater than that used for cytokines. […]

[3] = test system: BALB/c mice; conditions: single dose of 5-FU (150 mg/kg); Lerner and Harrison; cited from earlier work
[4] = biological target: FLT3 receptor on FLT3-transfected 3T3 cells (murine FLT3 extracellular portion/human Fms chimera or full length human receptor, not told apart at that place); assay: cell-based or functional assay

Compound: OC[C@H]1O[C@H](O[C@H]2O[C@H](CO)[C@@H](O)[C@H](O)[C@H]2O)[C@H](O)[C@@H](O)[C@@H]1O [α,α-trehalose]
greater potency than mannose [1]: 3.6 fold

Compound: O=c1[nH]cc(F)c(=O)[nH]1 [5-FU, 5-fluorouracil]
deaths after a single dose [2]: No mice died
reduction of bone marrow cellularity [3]: > 90%

Specific Activity (u/mg) in the Flt3 3T3 assay, Superdex 75 fraction (Pv-FRIL purified to near homogeneity from PHA-LCM) [4]: 244000 u/mg
Compound: Pv-FRIL, mannose-binding lectin isolated from red kidney bean (Phaseolus vulgaris) extract, or purified from PHA-LCM
